Data: article PMC12350170, “Structural basis for the synergistic assembly of the snRNA export complex” (Nature Structural & Molecular Biology, 2025)

Key:
Format in all cases: binding
[1] = molecular target: T1, Ran (RanGTP) in the snRNA export complex with CRM1, PHAX, CBC (Homo sapiens, UniProt P62826, Q69L); assay: cryo-EM structure of the complex; settings: Mg2+ present; Ran nucleotide site; complex with CRM1, phosphorylated PHAX, CBC and capped RNA
T1 construct: Ran Q69L as His-tag fusion from E. coli, loaded with GTP; His-CRM1; CK2-phosphorylated full-length PHAX; CBP80ΔNLS–CBP20; capped 14-nt RNA; with Exportin-1; Phosphorylated adapter RNA export protein

CBC (CBP80ΔNLS–CBP20) = molecular target: T2, CBC (CBP80ΔNLS–CBP20) (Homo sapiens, UniProt P52298); assay: isothermal titration calorimetry
T2 construct: gene NCBP2; heterodimer; CBP80ΔNLS (lacks N-terminal 19 residues) from High Five insect cells; CBP20 as His-GST fusion from E. coli, tag cleaved by TEV
T2 sequence (P52298 2-156): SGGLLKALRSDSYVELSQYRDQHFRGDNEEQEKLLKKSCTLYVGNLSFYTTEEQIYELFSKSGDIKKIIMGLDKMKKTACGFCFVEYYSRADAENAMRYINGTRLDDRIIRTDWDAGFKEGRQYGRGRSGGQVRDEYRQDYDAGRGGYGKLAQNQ
T2 sequence (Q09161 20-790 partner): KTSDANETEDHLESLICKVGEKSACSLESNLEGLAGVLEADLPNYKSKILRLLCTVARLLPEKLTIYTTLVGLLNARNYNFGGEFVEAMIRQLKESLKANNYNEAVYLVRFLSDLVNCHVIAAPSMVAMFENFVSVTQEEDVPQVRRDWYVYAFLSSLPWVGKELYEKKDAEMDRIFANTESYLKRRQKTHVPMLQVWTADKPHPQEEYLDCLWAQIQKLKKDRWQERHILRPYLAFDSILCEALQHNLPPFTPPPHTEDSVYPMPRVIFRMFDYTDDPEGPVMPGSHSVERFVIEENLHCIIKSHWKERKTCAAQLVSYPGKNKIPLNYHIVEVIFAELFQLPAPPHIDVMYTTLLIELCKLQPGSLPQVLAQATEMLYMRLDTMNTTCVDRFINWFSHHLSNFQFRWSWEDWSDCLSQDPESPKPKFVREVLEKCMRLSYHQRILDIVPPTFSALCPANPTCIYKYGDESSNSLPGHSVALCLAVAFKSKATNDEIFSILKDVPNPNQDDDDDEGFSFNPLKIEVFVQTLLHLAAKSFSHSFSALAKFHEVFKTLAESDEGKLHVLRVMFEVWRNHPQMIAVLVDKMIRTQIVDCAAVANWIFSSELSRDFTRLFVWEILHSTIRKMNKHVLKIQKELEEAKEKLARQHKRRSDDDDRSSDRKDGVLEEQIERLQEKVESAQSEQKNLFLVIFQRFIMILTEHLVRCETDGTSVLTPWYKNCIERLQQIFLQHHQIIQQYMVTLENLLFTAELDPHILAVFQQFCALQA

[2] = molecular target: T3, CBC in complex with PHAX^103–196 (Homo sapiens, UniProt P52298); assay: isothermal titration calorimetry
T3 construct: gene NCBP2; CBC (CBP80ΔNLS lacking N-terminal 19 residues; CBP20, tag cleaved) plus PHAX residues 103-196 made as His-MBP fusion in E. coli, not phosphorylated; Phosphorylated adapter RNA export protein
T3 sequence (Q9H814 103-196 partner, one chain of several): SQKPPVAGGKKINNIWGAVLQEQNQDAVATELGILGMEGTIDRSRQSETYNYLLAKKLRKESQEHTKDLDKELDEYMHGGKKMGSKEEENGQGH

| Kd (CBC (CBP80ΔNLS–CBP20)) | Kd [2] | Structure (SMILES) | cryo-EM structure of the complex [1] |
| --- | --- | --- | --- |
| – | – | Nc1nc2c(ncn2[C@@H]2O[C@H](COP(=O)(O)OP(=O)(O)OP(=O)(O)O)[C@@H](O)[C@H]2O)c(=O)[nH]1 [GTP] | the catalytic mutant of Ran (Q69L) bound to GTP |
| 300 nM | – | C[n+]1cn([C@@H]2O[C@H](COP(=O)(O)OP(=O)(O)OP(=O)(O)O)[C@@H](O)[C@H]2O)c2nc(N)[nH]c(=O)c21 [m^7GTP] | – |
| 96 nM | 100 nM | C[n+]1cn([C@@H]2O[C@H](COP(=O)(O)OP(=O)(O)OP(=O)(O)OC[C@H]3O[C@@H](n4cnc5c(=O)[nH]c(N)nc54)[C@H](O)[C@@H]3O)[C@@H](O)[C@H]2O)c2nc(N)[nH]c(=O)c21 [m^7GpppG] | – |
